From PMC10610134, “Verubulin (Azixa) Analogues with Increased Saturation: Synthesis, SAR and Encapsulation in Biocompatible Nanocontainers Based on Ca^2+ or Mg^2+ Cross-Linked Alginate” (Pharmaceuticals, 2023)
Read-outs that look alike come from different tables or passages of the source.

Columns and labels:
A549 = conditions: cited from earlier work
[1] = tested on: human breast cancer cell line MCF7′; test: MTT cytotoxicity assay, MCF7′; format: cell-based; conditions: read-out: IC50, nM MCF7′
Source text: (§1) The obtained series of verubulin analogues 2a–r (which also included three by-products isolated in the reactions according to Scheme 2) were initially evaluated for cytotoxicity against commonly used human breast cancer cell line MCF7′ (fast-growth subclone), human lung epithelial carcinoma cell line A549 and etiologically non-cancer immortalized lung fibroblast cell line VA13 (WI38 subline 2RA). Cytotoxicity against immortalized human embryonic kidney cell line HEK293T, characterized by a high growth rate, was also studied regarding cytotoxicity against non-cancerous fast-growth cells. A standard MTT assay was performed; verubulin (1) served as a positive reference. The data obtained are presented in Table 1 (for dose–response curves, see Supplementary Materials).
(§2) Human breast cancer cell line MCF7′ and human lung adenocarcinoma cell line A549 were kindly provided by Dr. S. Dmitriev (Lomonosov Moscow State University), immortalized human fibroblast cell line VA13 (WI38 subline 2RA) was kindly provided by Dr. M. Rubtsova (Lomonosov Moscow State University), human embryonic kidney HEK293T cell line was kindly provided by Dr. E. Knyazhanskaya (Lomonosov Moscow State University). MCF7′, VA13, A549 and HEK293T cell lines were maintained in DMEM/F-12 (Thermo Fisher Scientific, Waltham, MA, USA) culture medium containing 10% fetal bovine serum (Thermo Fisher Scientific, Waltham, MA, USA) and 50 μg/mL penicillin and 0.05 mg/mL streptomycin at 37 °C (Thermo Fisher Scientific, Waltham, MA, USA) in 5% CO2. Cells were maintained at 37 °C in a humidified MCO-18AC incubator (Sanyo, Tokyo, Japan) supplied with 5% CO2. Cell cultures were tested for the absence of mycoplasma and validated by STR.
(§3) The cytotoxicity of the substances was tested using the 3-(4,5-dimethylthiazol-2-yl)2,5-diphenyl tetrazolium bromide (MTT) assay with some modifications. A total of 2500 cells per well for the MCF7′, HEK293T, A549 cell lines or 4000 cells per well for the VA-13 cell line were plated out in 135 μL of DMEM-F12 media (Gibco, Thermo Fisher Scientific, Waltham, MA, USA) in a 96-well plate and incubated in the 5% CO2 incubator for the first 20 h without treatment. Then, 15.8 μL of media–DMSO solutions of tested substances (final DMSO concentrations in the media were 0.5% or less) was added to the cells (triplicate each) and cells were treated for 64 h with 0.023 mg/L–50 mg/L (eight dilutions) of compounds 2f,n,o,r; 1.14 μg/L–2.5 mg/L (eight dilutions) of compounds 2a,b,d,g,h,k,l,p,q; 57.2 ng/L–125 μg/L (eight dilutions) of compounds 2e,i,j; 22.9 ng/L–50 μg/L (eight dilutions) of compounds 1,2c,m. Doxorubicin was used as a control substance. Then, the MTT reagent (Paneco LLC, Moscow, Russia) was added to cells up to a final concentration of 0.5 g/L (10 × stock solution in PBS was used) and incubated for 2 h at 37 °C in the incubator, under an atmosphere of 5% CO2. Then, the MTT solution was discarded, and 140 μL of DMSO (PharmaMed LLC, Moscow, Russia) was added. The plates were swayed on a shaker (120 rpm) to dissolve the formazan. The absorbance was measured using a microplate reader (VICTOR X5 Light Plate Reader, PerkinElmer, Waltham, MA, USA) at a wavelength of 555 nm (in order to measure formazan concentration). The results were used to construct dose–response graphs and to estimate IC50 values (IC50 is the concentration resulting in half of the maximal cytotoxic effect) with GraphPad Prism V, GraphPadSoftware, Inc., San Diego, CA, USA.

[2] = tested on: human lung epithelial carcinoma cell line A549; test: MTT cytotoxicity assay, A549; format: cell-based; conditions: read-out: IC50, nM A549
Source text: as §1, §2, §3

[3] = tested on: immortalized lung fibroblast cell line VA13 (WI38 subline 2RA); test: MTT cytotoxicity assay, VA13; format: cell-based; conditions: Homo sapiens, read-out: IC50, nM VA13
Source text: as §1, §2, §3

[4] = tested on: immortalized human embryonic kidney cell line HEK293T; test: MTT cytotoxicity assay, HEK293T; format: cell-based; conditions: HEK-293T, read-out: IC50, nM HEK293T
Source text: as §1, §2, §3

[5] = tested on: MCF7′, A549, VA13, HEK293T cell lines; test: MTT cytotoxicity, SAR statements over the cell line panel; format: cell-based, human; conditions: pair A549/VA13
Source text: as §1, §3

[6] = tested on: tubulin (Tb) and microtubule-associated proteins (MAPs) from mouse brains; test: Tubulin + MAP polymerization assay; format: biochemical; conditions: GTP-dependent polymerization, read-out: IC50 of tubulin polymerization (initial rates, optical density at 355 nm)
HCT116 cells = test: Apoptosis induction, Annexin V / 7-AAD flow cytometry; format: cell-based, human; conditions: for Live (viable cells): human, 48 h
Description: Apoptosis is an important and active regulatory pathway of cell growth and proliferation. Annexin V is a calcium-dependent phospholipid-binding protein with a high affinity for phosphatidylserine (PS), a membrane component normally localized to the internal face of the cell membrane. Early in the apoptotic pathway, molecules of PS are translocated to the outer surface of the cell membrane where Annexin V can readily bind them.
After incubation, the cells were harvested by trypsinization, precipitated by centrifugation (3000 rpm), washed with cold PBS and recentrifuged. Aliquots of cells were processed as recommended in the Muse Annexin V& Dead Cell Kit (Luminex Corporation, Austin, TX, USA). The results were recorded on a Muse Cell Analyzer flow cytometer (Merck, Rahway, NJ, USA).

HCT116 cell line = test: MTT cytotoxicity towards HCT116; format: cell-based, human; conditions: HCT-116
[7] = tested on: microtubules in carcinoma A549 cells; test: Immunofluorescent microscopy of microtubules; format: cell-based, human; conditions: 24 h, A549
Description: Since verubulin is known to stimulate microtubule disassociation, we performed an immunofluorescent microscopy study to determine the response of microtubule dynamics in carcinoma A549 cells to the treatment with representative compounds 2b,c,e. […] Aberrant cell morphology—contraction and rounding (Figure 2A,B) or contraction and elongation (Figure 2C)—was also observed.
A549 cells were seeded on coverslips (treated with poly-l-lysine at a concentration of 33 mg/L for an hour). Compounds were added up to the corresponding concentration after 24 h attachment and growth of the cells. Then, cells were incubated 24 h.
The cells were fixed with methanol (precooled in liquid nitrogen for 20 min), no additional permeabilization was performed. To prevent non-specific binding, cells were incubated with 4% BSA in PBS for one hour. Then, a solution of mouse monoclonal antibodies against alpha-tubulin cross-linked with Alexa 488 fluoroform (Thermo Fisher Scientific, Waltham, MA, USA, 32-2588) at a concentration of 5 μg/mL in 1% BSA solution in PBS was added to the cells, and the slides were incubated at +5 °C in a water chamber for 24 h. After the end of the incubation time, the cells were washed several times with PBS buffer solution and fixed on a glass slide with Moviol. Next day, cells were imaged with a ZEISS LSM 900 (ZEISS Microscopy, GmbH, Germany) and images processed with ImageJ.

MCF7/MCF10A = tested on: MCF7/MCF10A; parameters: method as in PMID 36802449; conditions: cited from earlier work
[8] = 2 × IC50, 48 h, HCT116, listed as verubulin (1)
[9] = HCT116, human colon carcinoma, read-out: IC50

Structure (SMILES) | IC50 (A549) | IC50 ([1]; MCF7, 64 h treatment, MTT) | IC50 ([2]; A549, 64 h treatment, MTT) | IC50 ([3]; VA-13, 64 h treatment, MTT) | IC50 ([4]; 64 h treatment, MTT) | IC50 (HCT116 cell line; [9]) | Live (viable cells) (HCT116 cells) | also measured
COc1ccc2c(c1)NC(=O)CN2c1nc(C)nc2c1CCC2 [Banerjee 2021] | 4.5 nM | – | – | – | – | – | – | –
COc1ccc(N(C)c2nc(C)nc3ccccc23)cc1 [Compound 1, Verubulin] | 5 nM | – | – | – | – | – | – | IC50 ([1]; MCF7, 64 h): 1.4 ± 0.05 nM; IC50 ([2]; A549, 64 h): 1.1 ± 0.05 nM; IC50 ([3]; VA-13, 64 h): 0.84 ± 0.06 nM; IC50 ([4]; 64 h): 1 ± 0.02 nM; selectivity towards tumor cells [5]: no selectivity; IC50 [6]: 3100 ± 1100 nM; apoptotic cells, early plus late (HCT116 cells; 2 × IC50, 48 h, HCT116): 49.3%; Early Apop. (Annexin V (+), 7-AAD (−)) (HCT116 cells; [8]): 16.3%; Late Apop./Dead (Annexin V (+), 7-AAD (+)) (HCT116 cells; [8]): 33%; IC50 (HCT116 cell line; Homo sapiens): 3.2 ± 0.7 nM
COc1ccc2c(c1)CCCN2c1nc(C)nc2c1CCCC2 [Compound 2e, 4-(6-Methoxy-3,4-dihydroquinolin-1(2H)-yl)-2-methyl-5,6,7,8-tetrahydroquinazoline] | – | 12.6 ± 2.1 nM | 13.5 ± 2.2 nM | 7.1 ± 2 nM | 8.8 ± 2 nM | 22 ± 5 nM | – | effect on microtubules (MTs) ([7]; 10 μM): full depolymerization of MTs; effect on microtubules ([7]; 5–10 μM): pronounced or complete disruption of microtubules; IC50 [6]: 26000 ± 6000 nM
COc1ccc(N(C)c2nc(N)nc3c2CCCC3)cc1 [Compound 2i, N^4-(4-Methoxyphenyl)-N^4-methyl-5,6,7,8-tetrahydroquinazolinyl-2,4-diamine] | – | 10.2 ± 1.5 nM | 15 ± 2 nM | 6 ± 1.5 nM | 9.6 ± 2.2 nM | 40 ± 10 nM | 43.99% | Early Apop. (Annexin V (+), 7-AAD (−)) (HCT116 cells; 2 × IC50, 48 h, HCT116): 46.3%
COc1ccc2c(c1)CCCN2c1nc(N)nc2c1CCCC2 [Compound 2j, 2-Amino-4-(6-methoxy-3,4-dihydroquinolin-1(2H)-yl)-5,6,7,8-tetrahydroquinazoline] | – | 40.2 ± 7.8 nM | 50.5 ± 11.1 nM | 14.5 ± 3.9 nM | 28.9 ± 6.6 nM | 160 ± 30 nM | 30.81% | Early Apop. (Annexin V (+), 7-AAD (−)) (HCT116 cells; 2 × IC50, 48 h, HCT116): 56.4%
COc1ccc(N(C)c2nc(Cl)nc3c2CCCC3)cc1 [Compound 2m, 2-Chloro-N-(4-methoxyphenyl)-N-methyl-5,6,7,8-tetrahydroquinazolin-4-amine] | – | 3.3 ± 0.14 nM | 3 ± 0.2 nM | 1.3 ± 0.18 nM | 2.7 ± 0.12 nM | 1.8 ± 0.1 nM | 52.58% | selectivity towards tumor cells [5]: no selectivity; selectivity in the pair MCF7/MCF10A (MCF7/MCF10A): selective
COc1ccc(N(C)c2nc(Cl)nc3c2CCCC3)cc1 [Tan 2023] | 4.7 nM | – | – | – | – | – | – | –
COc1ccc2c(c1)CCCN2c1nc(C)nc2ccccc12 [Wang 2013] | – | – | – | – | – | – | – | GI50 (A549): 17.8 nM
